Consider 29 compounds from patent US20250051282A1, “COMPOUNDS FOR TREATING POLYQ-RELATED NEURODEGENERATIVE DISORDERS” (HANGZHOU JIJING PHARMACEUTICAL TECHNOLOGY LIMITED, priority 2021, published 2025).

Where a name gives a salt, the structure may show the parent alone.

For the experiment, the system named is ATXN1(60Q). The experiment in a line: Daoy-ATXN1(60Q)-mATXN1 MSD assay (CTG normalized). Format: cell-based. The following applies: Daoy-Flag-ATXN1(60Q) stable cells, compound added Day 2, lysis Day 3, final DMSO 0.3%, read-out: Daoy-ATXN1(60Q)-mATXN1 MSD (CTG normalized) DC50. Here is the method:
Protocol for MSD Assay: Daoy-ATXN1(600)-mATXN1 MSD (CTG normalized)
The Flag-ATXN1(60Q) gene is synthesized by Genescript and cloned into the pLVX-IRES-Puro vector (Takarabio, catalog No. 632183) using EcoRI/BamHI restriction enzyme sites. Lentivirus is made by transfecting HEK293T cells with pLVX-IRES-Puro-Flag-ATXN1(60Q) plasmids and packaging plasmids psPAX2 and pMD2.G at 4:3:1 ratio (8:6:[…], respectively) in 10 cm plates, and are harvested at 48 hours post transfection. Daoy cells (ATCC catalog No. HTB-186) seeded in T25 flasks are infected with the lentivirus in the presence of 8 µg/mL polybrene (Sigma, TR-1003-G) for 24 hours. 48 hours post infection, the cells are selected using 0.5 […] (Sigma, P8833) for more than 5 days until all cells in the uninfected group die. The expression of Flag-ATXN1(60Q) is verified by anti-Flag immunoblot using anti-Flag antibody (Sigma, F1804-200UG, M2).
As explained above, Daoy-Flag-ATXN1(60Q) cells are prepared as a stable cell line by infecting Daoy cells with lentivirus. The media for the cells is EMEM (ATTC, 30-2008) with 10% fetal bovin serum (FBS).
On Day 1, the Daoy-Flag-ATXN1(60Q) cells are seeded in a 96 well plate at a concentration of 1.2×10^4/well. On Day 2, the cells are treated with test compounds at test concentrations (compounds are serially diluted with DMSO to obtain test concentrations, such that final DMSO concentration is 0.3%). On Day 3, the cells are washed with 100 μL of phosphate-buffered saline (PBS) per well, and then 30 μL of radioimmuno-precipitation assay (RIPA) buffer (with protease and phosphatase inhibitor cocktail) is added to each well.
The well plate is then cooled on ice for 30 minutes in order to complete lysis, and MSD samples are prepared using 10 μL of Daoy-Flag-ATXN1-60Q lysate and 90 μL of RIPA buffer with gentle mixing. Each MSD sample has a total volume of 100 μL, and is used immediately or stored at −80° C.
A standard Meso Scale Discovery (MSD) plate is coated with anti-Flag (Sigma, F1804-200UG, M2) in PBS at 1:500 dilution ratio and 40 µL/well, and is incubated at 4° C. overnight with shaking at 600 rpm. Then, the MSD plate is washed 3 times with 150 µL/well of 1X TBST (tris-buffered saline (TBS) with Tween 20) buffer, and the MSD plate is blocked with 150 μL of blocking buffer [3% Blocker A in 1X TBST, (3 g Blocker A per 100 mL 1X TBST)] and shaken for 1 hour at 600 rpm at room temperature. Then, the MSD plate is washed three times with 150 μL/well of 1X TBST. Next, the diluted lysate samples (from Sample Preparation above) are added to the MSD plate at 25 μL/well, and the MSD plate is shaken at 600 rpm for 1 hour at room temperature. Then the MSD plate is washed 3 times with 150 μL/well of 1X TBST.
Detection antibody anti-Ataxin 1 (G-bio, ITA1916) (1:500), which is prepared in antibody detection buffer (1% Blocker A in 1X TBST), is then added to the MSD plate at 25 µL/well, and the MSD plate is shaken at 600 rpm for 1 hour at room temperature. The MSD plate is then washed three times with 150 μL/well of 1X TBST. Next, a secondary detection antibody, Goat anti-rabit (GAR) with SULFO-TAG (1:500), which is prepared in antibody detection buffer (1% Blocker A in 1X TBST), is added at 25 μL/well and the MSD plate is shaken at 600 rpm for 1 hour at room temperature. Then the MSD plate is washed 3 times with 150 μL/well of 1X TBST, and 2X MSD reading buffer is added at 150 μL/well (diluted from 4x MSD reading buffer with water). Finally, the signal from each well is measured on the MSD Meso QuickPle SQ120 Plate Reader. DC50 data is calculated using collaborate drug discovery (CDD) software (https://www.collaborativedrug.com/about).

Consider `O=C1Nc2ccc(Br)cc2/C1=C(/Nc1ccnnc1)c1ccc(F)c(F)c1` [Example 42, (Z)-5-bromo-3-((3,4-difluorophenyl) (pyrazin-4-ylamino)methylene) indolin-2-one], for which the DC50 is over 30 µM. On to `O=C1Nc2ccc(Br)cc2/C1=C(/Nc1cncnc1)c1cccc(O)c1` [Example 69, (Z)-5-bromo-3-((3-hydroxyphenyl) (pyrimidin-5-ylamino)methylene)indolin-2-one], for which the DC50 was under 10 µM. On to `COc1cc(/C(Nc2ccnnc2)=C2/C(=O)Nc3ccc(Br)cc32)ccc1N` [Example 62, (Z)-3-((4-amino-3-methoxyphenyl)(pyridazin-4-ylamino)methylene)-5-bromoindolin-2-one], for which the DC50 is over 30 µM.

For the compound `O=C1Nc2ccc(Br)cc2/C1=C(/Nc1ccc(C(=O)O)cc1)c1cccc(O)c1` [Example 74, (Z)-4-(((5-bromo-2-oxoindolin-3-ylidene)(3-hydroxyphenyl)methyl)amino)benzoic acid], the DC50 was 10 to 30 µM.

As for `CN1CCC(N/C(=C2\C(=O)Nc3ccc(Br)cc32)c2cccc(O)c2)CC1` [Example 15, (Z)-5-bromo-3-((3-hydroxyphenyl)((1-methylpiperidin-4-yl)amino)methylene) indolin-2-one], the DC50 is under 10 µM.

Consider `Cn1cc(N/C(=C2\C(=O)Nc3ccc(Br)cc32)c2ccc(F)c(F)c2)cn1` [Example 43, (Z)-5-bromo-3-((3,4-difluorophenyl)((1-methyl-1H-pyrazol-4-yl)amino)methylene) indolin-2-one], for which the DC50 is over 30 µM. In the case of `O=C1Nc2ccc(Br)cc2/C1=C(/NC1CCC1)c1cccc(O)c1` [Example 8, (Z)-5-bromo-3-((cyclobutylamino) (3-hydroxyphenyl)methylene)indolin-2-one], the DC50 was under 10 µM. Take `C/C(=C1\C(=O)Nc2ccc(Br)cc21)c1ccc2[nH]c(=O)oc2c1` [Example 88, (E)-6-(1-(5-bromo-2-oxoindolin-3-ylidene)ethyl)benzo[d]oxazol-2(3H)-one]: the DC50 was over 30 µM. For `N/C(=C1\C(=O)Nc2ccc(Br)cc21)c1ccncc1` [Example 77, (Z)-3-(amino (pyridin-4-yl)methylene)-5-bromoindolin-2-one], the DC50 is under 10 µM.

Turning to `O=C1Nc2ccc(Br)cc2/C1=C(/NC1CNC1)c1cccc(F)c1` [Example 37, (Z)-3-((azetidin-3-ylamino)(3-fluorophenyl)methylene)-5-bromoindolin-2-one], the DC50 is under 10 µM. For the compound `NCCN/C(=C1\C(=O)Nc2ccc(Br)cc21)c1ccccc1` [Example 28, (Z)-3-(((2-aminoethyl)amino) (phenyl)methylene)-5-bromoindolin-2-one], the DC50 is 10 to 30 µM. Consider `O=C1Nc2ccc(Br)cc2/C1=C(/NC1CCNCC1)c1cccc(O)c1` [Example 25, (Z)-5-bromo-3-((3-hydroxyphenyl) (piperidin-4-ylamino)methylene) indolin-2-one], for which the DC50 is under 10 µM. With `C/C(=C1\C(=O)Nc2ccc(Br)cc21)c1ccc(F)c(O)c1` [Example 92, (E)-5-bromo-3-(1-(4-fluoro-3-hydroxyphenyl)ethylidene) indolin-2-one], the DC50 was under 10 µM. In the case of `N#Cc1n[nH]cc1N/C(=C1\C(=O)Nc2ccc(Br)cc21)c1ccccc1` [Example 48, (Z)-4-(((5-bromo-2-oxoindolin-3-ylidene)(phenyl)methyl)amino)-1H-pyrazole-3-carbonitrile], the DC50 was over 30 µM. With `O=C1Nc2ccc(Br)cc2/C1=C(/NC1CCNC1)c1cccc(O)c1` (centres unmarked) [Example 24, (Z)-5-bromo-3-((3-hydroxyphenyl) (pyrrolidin-3-ylamino)methylene) indolin-2-one formate], the DC50 was over 30 µM. Consider `O=C1Nc2ccc(Br)cc2/C1=C(/Nc1ccnnc1)c1ccccc1` [Example 39, (Z)-5-bromo-3-(phenyl(pyridazin-4-ylamino)methylene) indolin-2-one], for which the DC50 is under 10 µM. As for `C/C(=C1\C(=O)Nc2ccc(Br)cc21)c1cc(O)c(O)c(Br)c1` [Example 98, 5-Bromo-3-(1-(3-bromo-4,5-dihydroxyphenyl)ethylidene)indolin-2-one], the DC50 was over 30 µM. For the compound `O=C1Nc2ccc(Br)cc2/C1=C(/Nc1ccnnc1)c1cccc(F)c1` [Example 40, (Z)-5-bromo-3-((3-fluorophenyl)(pyridazin-4-ylamino)methylene) indolin-2-one], the DC50 is under 10 µM.

`O=C1Nc2ccc(Br)cc2/C1=C(/Nc1cncnc1)c1ccccc1` [Example 45, (Z)-5-bromo-3-(phenyl(pyrimidin-5-ylamino)methylene) indolin-2-one]: the DC50 was under 10 µM.

Regarding `CN1CC(N/C(=C2\C(=O)Nc3ccc(Br)cc32)c2cccc(O)c2)C1` [Example 9, (Z)-5-bromo-3-((3-hydroxyphenyl)((1-methylazetidin-3-yl)amino)methylene) indolin-2-one], the DC50 was under 10 µM. As for `CC(=C1C(=O)Nc2ccc(C(F)(F)F)cc21)c1cccc(O)c1` [Example 95, 3-(1-(3-Hydroxyphenyl)ethylidene)-5-(trifluoromethyl) indolin-2-one], the DC50 is under 10 µM. Turning to `O=C1Nc2ccc(Br)cc2/C1=C(/Nc1cnn(C(F)F)c1)c1ccccc1` [Example 55, (Z)-5-bromo-3-(((1-(difluoromethyl)-1H-pyrazol-4-yl)amino)(phenyl)methylene)indolin-2-one], the DC50 is over 30 µM. For the compound `N/C(=C1\C(=O)Nc2ccc(Br)cc21)c1cc(O)c(Br)cn1` [Example 83, (Z)-3-(amino(5-bromo-4-hydroxypyridin-2-yl)methylene)-5-bromoindolin-2-one], the DC50 was over 30 µM. To `O=C1Nc2ccc(Br)cc2/C1=C(/Nc1cncs1)c1ccccc1` [Example 49, (Z)-5-bromo-3-(phenyl(thiazol-5-ylamino)methylene)indolin-2-one] belongs over 30 µM. For `O=C1Nc2ccc(Br)cc2/C1=C(/Nc1cnccn1)c1cccc(O)c1` [Example 72, (Z)-5-bromo-3-((3-hydroxyphenyl) (pyrazin-2-ylamino)methylene)indolin-2-one], the DC50 was under 10 µM. Take `NCCN/C(=C1\C(=O)Nc2ccc(Br)cc21)c1cccc(C(F)F)c1` [Example 30, (Z)-3-(((2-aminoethyl)amino)(3-(difluoromethyl)phenyl)methylene)-5-bromoindolin-2-one]: the DC50 was under 10 µM.

Regarding `O=C1Nc2ccc(Br)cc2/C1=C(/NCCCF)c1cccc(O)c1` [Example 6, (Z)-5-bromo-3-(((3-fluoropropyl)amino) (3-hydroxyphenyl)methylene)indolin-2-one], the DC50 is under 10 µM.

Take `Cn1cc(N/C(=C2\C(=O)Nc3ccc(Br)cc32)c2ccccc2)c(C(F)(F)F)n1` [Example 51, (Z)-5-bromo-3-(((1-methyl-3-(trifluoromethyl)-1H-pyrazol-4-yl)amino)(phenyl)methylene)indolin-2-one]: the DC50 is over 30 µM.

With `N/C(=C1\C(=O)Nc2ccc(Br)cc21)c1cncc(O)c1` [Example 84, (Z)-3-(amino(5-hydroxypyridin-3-yl)methylene)-5-bromoindolin-2-one], the DC50 was under 10 µM.
